US10363257B2 (ZENITH EPIGENETICS LTD., priority 2013, dated 2019)

Experiments:
[1] = target: T1, Brd4 bromodomain 1 (BRD4(1)) (Homo sapiens, UniProt O60885); test: Inhibition of tetra-acetylated histone H4 binding to Brd4 bromodomain 1 (TR-FRET); details: tetra-acetylated histone H4 peptide, first bromodomain of Brd4
T1 construct: made in house; host or cells: E. coli BL21(DE3)
In short: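 Serially diluted compound (0.2% DMSO) incubated 2 h at room temperature with 200 nM N-His BRD4 bromodomain 1 and 25-50 nM biotinylated tetra-acetyl H4 peptide, detected via Eu-streptavidin/XL665 anti-His. Loss of 665 nm relative to 620 nm signal gave IC50 from dose-response.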

[2] = tested on: human AML MV-4-11 cells; test: Inhibition of cell proliferation in MV4-11 cells (CellTiter Aqueous One); format: cell-based; details: for Cell Proliferation activity: 72 h; for IC50: MV4-11, 72 h
In short: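 IC50 values come from blank-corrected proliferation relative to DMSO controls, read as 490 nm absorbance 3–4 h after CellTiter Aqueous One addition. Before that, cells seeded at 5×10^4/well were exposed for 72 h (37° C, 5% CO2) to triplicate two-fold compound dilutions spanning 30–0.2 μM.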

[3] = tested on: hIL-6 mRNA; test: Inhibition of hIL-6 mRNA transcription in LPS-stimulated U937 cells; format: cell-based; details: Homo sapiens, U-937; PMA-differentiated U937 cells, 1 h pretreatment, 1 ug/mL LPS stimulation, 3 h; read-out: IL-6 activity (Inhibition of hIL-6 mRNA Transcription)
Description: In this example, hIL-6 mRNA in tissue culture cells was quantitated to measure the transcriptional inhibition of hIL-6 when treated with a compound of the invention.
Human leukemic monocyte lymphoma U937 cells (CRL-1593.2) were plated at a density of 3.2×10^4 cells per well in a 96-well plate in 100 μL RPMI-1640 containing 10% FBS and penicillin/streptomycin, and differentiated into macrophages for 3 days in 60 ng/mL PMA ([…]) at 37° C. in 5% CO2 prior to the addition of compound. The cells were pretreated for 1 h with increasing concentrations of test compound in 0.1% DMSO prior to stimulation with 1 ug/mL lipopolysaccharide from Escherichia coli. Triplicate wells were used for each concentration. The cells were incubated at 37° C., 5% CO2 for 3 h before the cells were harvested. At time of harvest, media was removed and cells were rinsed in 200 μL PBS. Cells were harvested using the mRNA Catcher PLUS kit according to manufacturer's instructions. The eluted mRNA was then used in a one-step quantitative real-time PCR reaction using components of the RNA UltraSense™ One-Step Kit (Life Technologies) together with Applied Biosystems TaqMan® primer-probes for hIL-6 and Cyclophilin. Real-time PCR plates were run on a VIa™ 7 real time PCR machine (Applied Biosystems), data was analyzed, normalizing the Ct values for hIL-6 to an internal control, prior to determining the fold expression of each sample, relative to the control.

[4] = tested on: c-myc; test: Inhibition of c-myc expression (mRNA, real-time PCR) in MV4-11 cells; format: cell-based; details: Human AML MV4-11 cells, 3 h, cMYC mRNA
Description: MV4-11 cells (CRL-9591) were plated at a density of 2.5×10^4 cells per well in 96 well U-bottom plates and treated with increasing concentrations of test compound or DMSO (0.1%) in IMDM media containing 10% FBS and penicillin/streptomycin, and incubated for 3 h at 37° C. Triplicate wells were used for each concentration. Cells were pelleted by centrifugation and harvested using the mRNA Catcher PLUS kit according to manufacturer's instructions. The eluted mRNA isolated was then used in a one-step quantitative real-time PCR reaction, using components of the RNA UltraSense™ One-Step Kit (Life Technologies) together with Applied Biosystems TaqMan® primer-probes for cMYC and Cyclophilin. Real-time PCR plates were run on a VIaTM7 real time PCR machine (Applied Biosystems), data was analyzed, normalizing the Ct values for cMYC to an internal control, prior to determining the fold expression of each sample, relative to the control.

| IC50 [1] [nM] | IC50 [3] [nM] | IC50 [2] [nM] | IC50 [4] [nM] | Compound | Cell Proliferation activity [2] |
| --- | --- | --- | --- | --- | --- |
| ≤ 300 |  | ≤ 300 | ≤ 300 | Cc1noc(C)c1-c1cnc2nc(NCc3cccnc3)n(Cc3ccccc3)c2c1 [compound 185, 1-benzyl-6-(3,5-dimethylisoxazol-4-yl)-N-(pyridin-3-ylmethyl)-1H-imidazo[4,5-b]pyridin-2-amine] |  |
| 300 to 3000 |  | ≤ 300 | ≤ 300 | Cc1noc(C)c1-c1cc(N)c2[nH]c(=S)n(Cc3ccccc3)c2c1 [compound 177, 4-amino-1-benzyl-6-(3,5-dimethylisoxazol-4-yl)-1H-benzo[d]imidazole-2(3H)-thione] |  |
| ≤ 300 |  | ≤ 300 | ≤ 300 | Cc1noc(C)c1-c1cnc2nc(N3CCCC3)n(Cc3ccccc3)c2c1 [compound 195, 4-(1-benzyl-2-(pyrrolidin-1-yl)-1H-imidazo[4,5-b]pyridin-6-yl)-3,5-dimethylisoxazole] |  |
| ≤ 300 | ≤ 300 |  |  | CC(=O)Nc1cc(-c2c(C)noc2C)cc2c1n(C)c(=O)n2Cc1ccccc1 [compound 164, N-(1-benzyl-6-(3,5-dimethylisoxazol-4-yl)-3-methyl-2-oxo-2,3-dihydro-1H-benzo[d]imidazol-4-yl)acetamide] |  |
| ≤ 300 |  | 300 to 3000 | 300 to 3000 | Cc1noc(C)c1-c1cnc2[nH]c(=O)n(CC3CCCC3)c2c1 [compound 202, 1-(cyclopentylmethyl)-6-(3,5-dimethylisoxazol-4-yl)-1H-imidazo[4,5-b]pyridin-2(3H)-one] |  |
| ≤ 300 |  | 300 to 3000 | ≤ 300 | Cc1noc(C)c1-c1cnc2nc(C)n(CC3CCCCC3)c2c1 [compound 191, 4-(1-(cyclohexylmethyl)-2-methyl-1H-imidazo[4,5-b]pyridin-6-yl)-3,5-dimethylisoxazole] |  |
| ≤ 300 |  | ≤ 300 | ≤ 300 | COCCNc1nc2ncc(-c3c(C)noc3C)cc2n1Cc1ccccc1 [compound 167, 1-benzyl-6-(3,5-dimethylisoxazol-4-yl)-N-(2-methoxyethyl)-1H-imidazo[4,5-b]pyridin-2-amine] |  |
| ≤ 300 |  | 300 to 3000 | 300 to 3000 | Cc1noc(C)c1-c1cnc2[nH]c(=O)n(Cc3ccccc3)c2c1C [compound 180, 1-benzyl-6-(3,5-dimethylisoxazol-4-yl)-7-methyl-1H-imidazo[4,5-b]pyridin-2(3H)-one] |  |
| ≤ 300 |  | 300 to 3000 | 300 to 3000 | Cc1noc(C)c1-c1cc(F)c2[nH]c(=O)n(Cc3ccccc3)c2c1 [compound 163, 1-benzyl-6-(3,5-dimethylisoxazol-4-yl)-4-fluoro-1H-benzo[d]imidazol-2(3H)-one] |  |

More lines, now with the values behind:

| Compound | IC50 [1] [nM] | IC50 [3] [nM] | IC50 [2] [nM] | IC50 [4] [nM] | Cell Proliferation activity [2] |
| --- | --- | --- | --- | --- | --- |
| Cc1noc(C)c1-c1ccc2ncc(=O)n(Cc3ccccc3)c2c1 [Example Compound 11, 1-Benzyl-7-(3,5-dimethylisoxazol-4-yl)quinoxalin-2(1H)-one] | ≤ 300 | 300 to 3000 |  |  | Not active |
| Cc1noc(C)c1-c1cc(N)c2c(c1)n(Cc1ccccc1)c(=O)n2C [compound 162, 4-amino-1-benzyl-6-(3,5-dimethylisoxazol-4-yl)-3-methyl-1H-benzo[d]imidazol-2(3H)-one] | ≤ 300 | ≤ 300 | ≤ 300 |  |  |
| Cc1noc(C)c1-c1cnc2ncn(Cc3ccc(C(F)(F)F)cc3)c2c1 [Example Compound 41, 3,5-dimethyl-4-(1-(4-(trifluoromethyl)benzyl)-1H-imidazo[4,5-b]pyridin-6-yl)isoxazole] | ≤ 300 | 3000 to 30000 | 300 to 3000 |  |  |
| Cc1noc(C)c1-c1cc([N+](=O)[O-])c2c(c1)n(Cc1ccccc1)c(=O)n2C [compound 150, 1-benzyl-6-(3,5-dimethylisoxazol-4-yl)-3-methyl-4-nitro-1H-benzo[d]imidazol-2(3H)-one] | ≤ 300 | 300 to 3000 |  |  | Not active |
| Cc1noc(C)c1-c1cnc2nc(C)n(Cc3ccc(C#N)cc3)c2c1 [compound 70, 4-((6-(3,5-dimethylisoxazol-4-yl)-2-methyl-1H-imidazo[4,5-b]pyridin-1-yl)methyl)benzonitrile] | ≤ 300 | 300 to 3000 | 3000 to 30000 |  |  |
| COCCNc1nc2c([N+](=O)[O-])cc(-c3c(C)noc3C)cc2n1Cc1ccccc1 [compound 137, 1-benzyl-6-(3,5-dimethylisoxazol-4-yl)-N-(2-methoxyethyl)-4-nitro-1H-benzo[d]imidazol-2-amine] | ≤ 300 | ≤ 300 | ≤ 300 |  |  |
| Cc1noc(C)c1-c1nc(N)c2ncn(Cc3ccccc3)c2n1 [Example Compound 1, 9-Benzyl-2-(3,5-dimethylisoxazol-4-yl)-9H-purin-6-amine] | 300 to 3000 | 300 to 3000 |  |  | Not active |
| Cc1noc(C)c1-c1cc([N+](=O)[O-])c2nc(N3CCCC3)n(Cc3ccccc3)c2c1 [compound 135, 4-(1-benzyl-4-nitro-2-(pyrrolidin-1-yl)-1H-benzo[d]imidazol-6-yl)-3,5-dimethylisoxazole] | ≤ 300 | ≤ 300 | 300 to 3000 |  |  |
| Cc1noc(C)c1-c1cc2c(ccn2Cc2ccccc2)[nH]c1=O [Example Compound 56, 1-benzyl-6-(3,5-dimethylisoxazol-4-yl)-1H-pyrrolo[3,2-b]pyridin-5(4H)-one] | 300 to 3000 | 3000 to 30000 |  |  |  |
| Cc1noc(C)c1-c1cnc2ncn(Cc3ccc(Cl)cc3)c2c1 [Example Compound 43, 4-(1-(4-chlorobenzyl)-1H-imidazo[4,5-b]pyridin-6-yl)-3,5-dimethylisoxazole] | ≤ 300 | 300 to 3000 | 300 to 3000 |  |  |
| Cc1noc(C)c1-c1cnc2c(c1)ncn2Cc1ccc(C(F)(F)F)cc1 [Example Compound 40, 3,5-dimethyl-4-(3-(4-(trifluoromethyl)benzyl)-3H-imidazo[4,5-b]pyridin-6-yl)isoxazole] | 300 to 3000 | 3000 to 30000 |  |  | Not active |
| CCNc1nc2c(N)cc(-c3c(C)noc3C)cc2n1CC1CC1 [compound 160, 1-(cyclopropylmethyl)-6-(3,5-dimethylisoxazol-4-yl)-N2-ethyl-1H-benzo[d]imidazole-2,4-diamine] | ≤ 300 |  | 300 to 3000 | 300 to 3000 |  |
| Cc1noc(C)c1-c1cc(N)c2[nH]c(=O)n(Cc3ccc(Cl)cc3)c2c1 [compound 90, 4-amino-1-(4-chlorobenzyl)-6-(3,5-dimethylisoxazol-4-yl)-1H-benzo[d]imidazol-2(3H)-one] | ≤ 300 |  | 300 to 3000 | ≤ 300 |  |
| Cc1noc(C)c1-c1cnc2[nH]c(=O)n(Cc3ccc(Cl)s3)c2c1 [compound 124, 1-((5-chlorothiophen-2-yl)methyl)-6-(3,5-dimethylisoxazol-4-yl)-1H-imidazo[4,5-b]pyridin-2(3H)-one] | ≤ 300 |  | 300 to 3000 | 300 to 3000 |  |
| Cc1noc(C)c1-c1cc([N+](=O)[O-])c2[nH]c(=O)n(C(C)c3ccccc3)c2c1 (stereo not shown) [compound 110, 6-(3,5-dimethylisoxazol-4-yl)-4-nitro-1-(1-phenylethyl)-1H-benzo[d]imidazol-2(3H)-one] | ≤ 300 |  | 300 to 3000 | 300 to 3000 |  |
